From ChEMBL document CHEMBL3232772, “Spiramine derivatives induce apoptosis of Bax(-/-)/Bak(-/-) cell and cancer cells” (Bioorg Med Chem Lett, 2014) come the findings set out here.

One assay has as its system MCF7. The assay can be described thus: Cytotoxicity against human MCF7 cells after 48 hrs by MTT assay. Type of assay: functional, cell-based. As to conditions: MCF7, 48 h. (In general: Formazan colour is commonly taken as a measure of viable cells.)
The next assay has as its system HL-60. The assay can be described thus: Cytotoxicity against human HL60 cells after 48 hrs by MTT assay. Format: functional, cell-based. The conditions noted are these: HL-60, 48 h.
In assay [1] the test system is SW480. The assay can be described thus: Cytotoxicity against human SW480 cells after 48 hrs by MTT assay. Format: functional, cell-based. As to conditions: SW480, 48 h.
A further assay deals with A549. The assay can be described thus: Cytotoxicity against human A549 cells after 48 hrs by MTT assay. Type of assay: functional, cell-based. The conditions noted are these: A549, 48 h.
The test system of assay [2] is MEF. The assay can be described thus: Induction of apoptosis in Bax(-/-)/Bak(-/-) MEF at 10 uM after 24 to 48 hrs. The conditions noted are these: Mus musculus. Type of assay: functional, cell-based.
The subject of another assay is SMMC-7721. The assay can be described thus: Cytotoxicity against human SMMC7721 cells after 48 hrs by MTT assay. Type of assay: functional, cell-based. As to conditions: SMMC-7721, 48 h.
The subject of a further assay is NCI/ADR-RES. The assay can be described thus: Resistant factor, ratio of IC50 for human MCF7/ADR cells to IC50 for human MCF7 cells. Type of assay: functional.
Assay [3] is described as follows: Cytotoxicity against human MCF7/ADR cells after 48 hrs by MTT assay. As to conditions: NCI/ADR-RES. Type of assay: functional, cell-based.
Assay [4] deals with SW480. The assay can be described thus: Induction of apoptosis in human SW480 cells assessed as late apoptotic cells at 20 uM after 24 hrs using annexin V-FITC and propidium iodide staining by flow cytometry (reference value: 1.0%). Format: functional. Background: Flow cytometry measures light scatter and fluorescence of single cells or particles in a stream.
In assay [5] the test system is SW480. The assay can be described thus: Induction of apoptosis in human SW480 cells assessed as early apoptotic cells at 20 uM after 24 hrs using annexin V-FITC and propidium iodide staining by flow cytometry (reference value: 1.4%). Type of assay: functional.
Assay [6] has as its system SW480. The assay can be described thus: Induction of apoptosis in human SW480 cells assessed as activation of caspase activity at 20 uM after 24 hrs by CASPACE-FITC staining (reference value: 6.2%). Format: functional.
Assay [7] relates to MEF. The assay can be described thus: Induction of apoptosis in Bax(-/-)/Bak(-/-) MEF assessed as activation of caspase activity at 20 uM after 24 hrs by CASPACE-FITC staining (reference value: 12.2%). Format: functional, Mus musculus.
Assay [8] has as its system MEF. The assay can be described thus: Induction of apoptosis in Bax(-/-)/Bak(-/-) MEF assessed as early apoptotic cells at 20 uM after 24 hrs using annexin V-FITC and propidium iodide staining by flow cytometry (reference value: 0.6%). Type of assay: functional, Mus musculus.
Assay [9] deals with MEF. The assay can be described thus: Induction of apoptosis in Bax(-/-)/Bak(-/-) MEF assessed as late apoptotic cells at 20 uM after 24 hrs using annexin V-FITC and propidium iodide staining by flow cytometry (reference value: 3.3%). Type of assay: functional, Mus musculus.
The test system of assay [10] is MEF. The assay can be described thus: Induction of apoptosis in Bax(-/-)/Bak(-/-) MEF after 48 hrs. As to conditions: Mus musculus. Type of assay: functional, cell-based.
The subject of assay [11] is SW480. The assay can be described thus: Induction of apoptosis in human SW480 cells assessed as late apoptotic cells at 10 uM after 24 hrs using annexin V-FITC and propidium iodide staining by flow cytometry (reference value: 1.0%). Format: functional.
The subject of assay [12] is MEF. The assay can be described thus: Induction of apoptosis in Bax(-/-)/Bak(-/-) MEF assessed as activation of caspase activity at 10 uM after 24 hrs by CASPACE-FITC staining (reference value: 12.2%). Type of assay: functional, Mus musculus.
The test system of assay [13] is MEF. The assay can be described thus: Induction of apoptosis in Bax(-/-)/Bak(-/-) MEF assessed as late apoptotic cells at 10 uM after 24 hrs using annexin V-FITC and propidium iodide staining by flow cytometry (reference value: 3.3%). Format: functional, Mus musculus.
The test system of assay [14] is SW480. The assay can be described thus: Induction of apoptosis in human SW480 cells assessed as early apoptotic cells at 10 uM after 24 hrs using annexin V-FITC and propidium iodide staining by flow cytometry (reference value: 1.4%). Type of assay: functional.
The subject of assay [15] is MEF. The assay can be described thus: Induction of apoptosis in Bax(-/-)/Bak(-/-) MEF assessed as early apoptotic cells at 10 uM after 24 hrs using annexin V-FITC and propidium iodide staining by flow cytometry (reference value: 0.6%). Format: functional, Mus musculus.
Assay [16] relates to SW480. The assay can be described thus: Induction of apoptosis in human SW480 cells assessed as activation of caspase activity at 10 uM after 24 hrs by CASPACE-FITC staining (reference value: 6.2%). Format: functional.

The structures appear in SMILES notation. Active and inactive are the calls of the source. No cut-off for these calls is given here.

As usually defined, the IC50 is the concentration at which inhibition is half-maximal. Read a low IC50 as greater potency in that assay. Regarding `C=C1C(=O)[C@]23CC[C@H]1C[C@H]2[C@@]12CCC[C@@](C)(CN(CCO[Si](C)(C)C(C)(C)C)C1)[C@H]2C(=C)C3=O`, the IC50 in the assay on MCF7 was 2.9 µM; with HL-60 it was 1.39 µM; in the assay on SW480 [1], 2.78 µM; with A549, 1.55 µM; in the assay on SMMC-7721, 2.63 µM. Also, the result in the assay with MEF [2] was Active.

`COc1cccc2c1C(=O)c1c(O)c3c(c(O)c1C2=O)C[C@@](O)(C(=O)CO)C[C@@H]3O[C@H]1C[C@H](N)[C@H](O)[C@H](C)O1` [DOXORUBICIN]: the “Ratio IC50” value in the assay on NCI/ADR-RES turned out to be 888.75. Further, the IC50 in the assay with MCF7 amounted to 0.077 µM; in [3], 68.4 µM.

On to `C=C1C(=O)[C@]23CC[C@H]1C[C@H]2[C@@]12CCC[C@@](C)(CN(CCO)C1)[C@H]2C[C@H]3O`, for which the IC50 in the assay on MCF7 is 16.6 µM; in the assay on HL-60 it was 7.95 µM; with SW480 [1] it was 14.4 µM; in the assay on A549, 9.92 µM; with SMMC-7721, 11.2 µM. Also, in the assay with MEF [2], the outcome was Active.

`C=C1C(=O)[C@@]23CC[C@@H](C[C@H]2[C@@]24CCC[C@@](C)(CN(CCO)C2)[C@@H]14)C(=C)[C@@H]3O`: the IC50 in the assay with MCF7 is 6.98 µM; in the assay on HL-60, 4.82 µM; in the assay on SW480 [1], 9.84 µM; with A549, 3.04 µM; in the assay on SMMC-7721, 1.48 µM. In addition, in the assay on MEF [2], the result was Active.

On to `C=C1C(=O)[C@]23CC[C@H]1C[C@H]2[C@@]12CCC[C@@]4(C)C(=O)N[C@H]1O[C@@H]3C[C@@H]24`, for which, in the assay with NCI/ADR-RES, the “Ratio IC50” value is 1.4. Also, the IC50 with MCF7 is 15.7 µM; in the assay with HL-60, 18.6 µM; in the assay on SW480 [1], 14.2 µM; with A549, 19 µM; with SMMC-7721, 15.7 µM; in assay [3], 28.3 µM. For the same compound, in the assay with MEF [2], the outcome was Active.

For `C=C1C(=O)[C@]23CC[C@H]1C[C@H]2[C@@]12CCC[C@@](C)(CN(CCO)C1)[C@H]2C(=C)C3=O`, the 50% inhibitory concentration (IC50) is 3.57 µM with MCF7; 6.61 µM in the assay on HL-60; 2.81 µM in the assay with SW480 [1]; 6.5 µM with A549; 11.5 µM with SMMC-7721; 1810 nM in the assay with MEF [10]. Further, the Activity in the assay with SW480 [4] is listed as 44.2%; in the assay with SW480 [5], 13.1%; with SW480 [6] it was 29.8%; in the assay on MEF [7], 97.1%; with MEF [8], 28.2%; in the assay on MEF [9] it was 76.8%. Further, the result with MEF [2] was Active.

Turning to `C=C1C(=O)[C@]23CC[C@H]1C[C@H]2[C@@]12CCC[C@@](C)(COC1=O)[C@H]2C[C@H]3O`, the 50% inhibitory concentration (IC50) worked out at 3.25 µM in the assay with MCF7; 6.36 µM with HL-60; 3.58 µM in the assay with SW480 [1]; 3.22 µM in the assay with A549; 3.96 µM in the assay with SMMC-7721; 1740 nM with MEF [10]. In addition, in the assay on MEF [2], the outcome was Active.

`C=C1C(=O)[C@]23CC[C@H]1C[C@H]2[C@@]12CCC[C@@](C)(CN(CCO)C1)[C@H]2CC3=O`: the IC50 with MCF7 worked out at 15.7 µM; with HL-60, 14.3 µM; in the assay on SW480 [1] it was 11.8 µM; with A549, 9.24 µM; in the assay with SMMC-7721, 15.2 µM; in the assay with MEF [10], 4520 nM. In addition, the Activity is listed as 13.3% with SW480 [4]; 10.9% in the assay on SW480 [5]; 10.9% with SW480 [6]; 66.6% in the assay with MEF [7]; 11.7% with MEF [8]; 52.2% in the assay on MEF [9]. For the same compound, the result in the assay with MEF [2] was Active.

As to `C=C1C(=O)[C@]23CC[C@H]1C[C@H]2[C@@]12CCC[C@@]4(C)C(=O)N(CCO)[C@H]1O[C@@H]3C[C@@H]24`, the IC50 is 13.2 µM in the assay with MCF7; 18.6 µM in the assay with HL-60; 12.4 µM in the assay on SW480 [1]; 17.9 µM in the assay with A549; 18.4 µM with SMMC-7721. The outcome in the assay with MEF [2] was Active.

On to `C=C1C(=O)[C@]23CC[C@H]1C[C@H]2[C@@]12CCC[C@@]4(C)C5OCCN5[C@H]1O[C@@H]3C[C@@H]24` (stereo partly drawn), for which the IC50 in the assay on MCF7 amounted to 0.67 µM; in the assay on HL-60, 1.34 µM; in the assay with SW480 [1], 1.97 µM; in the assay with A549, 2.03 µM; with SMMC-7721, 1.04 µM; with MEF [10], 2240 nM. In addition, the Activity in the assay on SW480 [4] is given as 15.9%; in the assay with SW480 [5], 16.9%; with SW480 [6] it was 18.2%; in the assay on MEF [7], 87.8%; in the assay with MEF [8], 1.9%; with MEF [9], 86.2%. The result in the assay with MEF [2] was Active.

As to `C=C1C(=O)[C@]23CC[C@H]1C[C@H]2[C@@]12CCC[C@@]4(C)CN(CCO)[C@H]1O[C@@H]3C[C@H]42`, the IC50 was 10.3 µM in the assay with MCF7; 19.3 µM in the assay on HL-60; 14 µM with SW480 [1]; 18.6 µM with A549; 23.6 µM in the assay on SMMC-7721. For the same compound, the result in the assay with MEF [2] was Active.

For `C=C1C(=O)[C@]23CC[C@H]1C[C@H]2[C@@]12CCC[C@@](C)(C(=O)N4CCO[C@H]41)[C@H]2C[C@H]3O`, in the assay on NCI/ADR-RES, the “Ratio IC50” value is recorded as 1.66. In addition, the Activity worked out at 8.6% in the assay with SW480 [11]; 14.3% in the assay on MEF [12]; 2.1% with MEF [13]; 25.5% in the assay on SW480 [14]; 8.6% in the assay with MEF [15]; 40.1% in the assay on SW480 [4]. The Activity in the assay on SW480 [5] stood at 46.7%; in the assay with SW480 [6], 60.1%; in the assay with MEF [7] it was 93.2%; with SW480 [16], 12.1%; with MEF [8] it was 21.7%; in the assay on MEF [9], 68.3%. In addition, the IC50 in the assay on MCF7 worked out at 1.12 µM; with HL-60 it was 2.73 µM; in the assay on SW480 [1], 2.81 µM; in the assay on A549, 3.09 µM; in the assay with SMMC-7721, 2.63 µM; in the assay with MEF [10], 3380 nM. In assay [3], this compound returned an IC50 of 8.8 µM. The outcome in the assay on MEF [2] was Active.
